Consider eight molecules from US9150829B2, “Culture of pluripotent and multipotent cells on microcarriers” (AGENCY FOR SCIENCE, TECHNOLOY AND RESEARCH, priority 2009, dated 2015).

One test has as its target Rho kinase (ROCK). The following applies: cited from earlier work.
Another test addresses PKC. Particulars: read-out: Ki PKC; cited from earlier work.
Another test addresses MLCK (Homo sapiens, UniProt Q15746). The following applies: cited from earlier work.
The subject of test [1] is hESC (HES-2). Nature of the test: Pluripotent marker expression in HES-2 on matrix free microcarriers with ROCK inhibitors. The class given is cell-based, human. Particulars: for expression of pluripotent marker Tra-1-60 / expression of pluripotent marker Oct4: DE53. Here is the method: (§1) Briefly, expression levels of extracellular antigens TRA-1-60 and intracellular transcription factor, Oct-4 in hESC populations are assessed by immunofluorescence using flow cytometry. Cells are harvested as single cell suspensions using trypsin or trypLE express, filtered through a 40 μm sieve (BD) fixed, permeabilised (Caltag Laboratories) and incubated with primary antibodies to TRA-1-60 (1:50 dilution, Chemicon, MAB4360/4381) and to Oct-4 (1:20 dilution, Santa Cruz).
(§2) Cells are then washed with 1% BSA/PBS, and incubated in the dark with a 1:500 dilution of goat α-mouse antibody FITC-conjugated (DAKO). After incubation, the cells are again washed and resuspended in 1% BSA/PBS for analysis on a FACScan (Becton Dickinson FACS Calibur). All incubations are performed at room temperature for 15 min.
A range of ROCK inhibitors (at 10 μM) were tested for their ability to allow hESC (HES-2) cell culture on matrix free cellulose DE53 microcarriers. These included fasudil, hydroxyfasudil and […] and were compared to a control (DE53 microcarriers coated in Matrigel).

For test [2], the target named is phosphatidylinositol 3 (PI3) kinase. The following applies: cited from earlier work.
Test [3] concerns P14 kinase, PKC, MAP kinase or c-Src. Particulars: concentration of 50 μM; cited from earlier work.
Test [4] concerns hESC. Nature of the test: FACS of pluripotent markers in hESC on microcarriers. It is filed as cell-based, human. Here is the method:
Characterisation was performed according to our recent paper by Oh et al., 2009 (Long term microcarrier suspension cultures of human embryonic stem cells, Stem Cell Research (2009)).
as §1, §2

Test [5] relates to hESC. The test can be described thus: hESC growth and passaging on uncoated microcarriers without Matrigel with ROCK inhibitor. It is filed as cell-based, human. Here is the method:
Cells suspension obtained either from dispersed 2D colony culture or directly from liquid nitrogen storage (200×200 μm tissue obtained from 2D colony culture or as cell-microcarriers aggregates) are seeded at concentrations of 0.1-0.3×10^6/ml on microcarrier suspension (4 mg/ml). […] The media used are either MEF-CM or defined media. Medium is changed daily. The cultures are passaged weekly following either enzymatic treatment with collagenase or trypLE or following mechanical dissociating by repeated pipetting at a split ratio of 1:2 to 1:10. Replating of microcarrier cultures to 2D colony culture is done by placing confluent cell-microcarrier aggregates on Matrigel coated 6 cm tissue culture petridish with 8 mls of media, and culturing the cells for 7 days. Seeding of hESC on DE53, QA52, Tosoh, Cytodex 1 and Cytodex 3 microcarriers hESC were seeded on uncoated microcarriers and passaged weekly following the protocol of Example 3 and that of Oh et al., 2009 (Long term microcarrier suspension cultures of human embryonic stem cells, Stem Cell Research (2009)). All chemicals were purchased from Calbiochem. All inhibitors were diluted to their final working concentration in conditioned media prior to feeding hESC on microcarriers.

For test [6], the system named is iPS IMR90 cells. Nature of the test: Human iPS cell growth on uncoated DE53 microcarriers with ROCK inhibitor. The class given is cell-based. Particulars: uncoated DE53, mTeSR1, 10 μM daily, 12 passages. Here is the method:
(§3) iPS IMR90 cells (1.6×10^5 cells/ml) were cultured in wells of a 6-well plate with 20 mg of uncoated DE53, 5 ml of serum free media mTeSR1, 4 μl of ROCK inhibitor (Y27632) [10 μM]. 80% media refreshment and addition of inhibitor was carried out daily.

Test [7] has as its system hESC (HES-2). Nature of the test: Pluripotent marker expression in HES-2 on matrix free microcarriers with ROCK inhibitors. The class given is cell-based, human. Particulars: Cytodex 1, 10 μM, passage 5.
Test [8] relates to iPS IMR90 cells. The test can be described thus: Pluripotent marker expression in human iPS cells on DE53 microcarriers. The class given is cell-based. The following applies: uncoated DE53, mTeSR1, 10 μM daily, 12 passages. Here is the method: as §1, §2, §3
Another test has as its target T1, PKCiota-Par6 interaction (Homo sapiens, UniProt P41743).
T1 sequence (P41743 10-122 limits assumed): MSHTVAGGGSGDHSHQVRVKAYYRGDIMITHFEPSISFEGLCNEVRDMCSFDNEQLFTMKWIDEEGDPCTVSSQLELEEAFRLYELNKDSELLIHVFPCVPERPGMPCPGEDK
Particulars: read-out: IC50 (PKCiota-Par6 interaction inhibitor); cited from earlier work.

The mark [9] stands for this setting: 10 μM, daily continuous addition, after 9 weeks.
[10] abbreviates: single dose addition (10 μM), after 6 weeks (P6).

Converted amounts (≈) assume the structure as drawn.

Chain of MLCK (Q15746 whole entry): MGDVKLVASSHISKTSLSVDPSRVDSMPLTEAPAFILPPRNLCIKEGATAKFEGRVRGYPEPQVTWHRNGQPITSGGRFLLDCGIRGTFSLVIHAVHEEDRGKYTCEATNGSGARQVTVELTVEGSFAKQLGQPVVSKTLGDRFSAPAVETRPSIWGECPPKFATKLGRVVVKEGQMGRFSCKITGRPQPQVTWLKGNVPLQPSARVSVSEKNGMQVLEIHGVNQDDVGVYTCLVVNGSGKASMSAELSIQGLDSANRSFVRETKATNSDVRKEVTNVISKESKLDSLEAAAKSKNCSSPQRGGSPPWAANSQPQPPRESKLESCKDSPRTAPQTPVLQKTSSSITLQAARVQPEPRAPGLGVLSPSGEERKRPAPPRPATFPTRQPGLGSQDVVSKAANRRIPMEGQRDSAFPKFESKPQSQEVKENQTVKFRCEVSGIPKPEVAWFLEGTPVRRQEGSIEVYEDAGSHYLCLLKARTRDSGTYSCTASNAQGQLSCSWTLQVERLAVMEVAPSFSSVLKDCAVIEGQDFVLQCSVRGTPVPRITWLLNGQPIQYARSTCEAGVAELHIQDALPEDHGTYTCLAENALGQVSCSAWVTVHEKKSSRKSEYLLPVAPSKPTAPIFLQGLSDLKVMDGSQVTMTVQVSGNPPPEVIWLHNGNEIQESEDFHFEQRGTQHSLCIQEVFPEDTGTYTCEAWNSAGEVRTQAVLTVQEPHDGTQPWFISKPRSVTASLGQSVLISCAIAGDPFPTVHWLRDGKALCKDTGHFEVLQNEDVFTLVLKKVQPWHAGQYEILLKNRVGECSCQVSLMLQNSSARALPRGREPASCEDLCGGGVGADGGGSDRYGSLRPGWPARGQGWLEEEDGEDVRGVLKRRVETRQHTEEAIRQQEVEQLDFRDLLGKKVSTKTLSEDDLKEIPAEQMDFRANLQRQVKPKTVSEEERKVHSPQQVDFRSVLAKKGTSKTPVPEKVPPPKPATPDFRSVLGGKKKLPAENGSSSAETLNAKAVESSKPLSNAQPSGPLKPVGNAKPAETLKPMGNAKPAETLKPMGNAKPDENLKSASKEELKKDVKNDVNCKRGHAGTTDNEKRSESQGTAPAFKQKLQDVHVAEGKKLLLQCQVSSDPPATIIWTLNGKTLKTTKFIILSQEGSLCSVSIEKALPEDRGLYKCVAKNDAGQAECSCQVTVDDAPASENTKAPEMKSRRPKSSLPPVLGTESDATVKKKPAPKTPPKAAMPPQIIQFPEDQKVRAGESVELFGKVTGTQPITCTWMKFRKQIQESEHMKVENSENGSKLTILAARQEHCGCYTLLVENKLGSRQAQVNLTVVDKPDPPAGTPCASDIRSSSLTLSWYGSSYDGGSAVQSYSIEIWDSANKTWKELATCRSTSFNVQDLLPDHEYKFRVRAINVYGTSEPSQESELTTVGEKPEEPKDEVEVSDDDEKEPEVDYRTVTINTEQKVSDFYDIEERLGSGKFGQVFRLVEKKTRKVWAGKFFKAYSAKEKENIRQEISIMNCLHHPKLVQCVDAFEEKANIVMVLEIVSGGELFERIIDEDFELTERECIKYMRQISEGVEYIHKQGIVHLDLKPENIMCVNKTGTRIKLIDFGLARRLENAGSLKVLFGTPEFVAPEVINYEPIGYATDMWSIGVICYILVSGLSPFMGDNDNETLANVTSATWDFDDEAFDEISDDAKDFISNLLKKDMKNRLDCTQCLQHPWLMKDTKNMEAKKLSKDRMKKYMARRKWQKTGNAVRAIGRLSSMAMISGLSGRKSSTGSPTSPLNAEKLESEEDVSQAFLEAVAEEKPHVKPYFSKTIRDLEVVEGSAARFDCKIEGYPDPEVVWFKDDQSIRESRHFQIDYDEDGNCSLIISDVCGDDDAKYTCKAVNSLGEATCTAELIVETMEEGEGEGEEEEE

As a reminder, the Ki is the equilibrium dissociation constant of an inhibitor or competing ligand from its target. Regarding `Cc1cncc2cccc(S(=O)(=O)N3CCCNCC3C)c12` (stereo in doubt) [H-1152, (S)-(+)-2-Methyl-1-[(4-methyl-5-isoquinolinyl)sulfonyl]homopiperazine], the Ki at Rho kinase (ROCK) was 0.0016 µM; at PKC, 9.27 µM; at MLCK, 10.1 µM.

By IC50 is commonly meant the concentration at which inhibition is half-maximal. As for `c1ccc2c(-c3ccncc3)c[nH]c2c1` [3-(4-Pyridyl)-1H-indole], the IC50 on Rho kinase (ROCK) was 25 µM.

In the case of `O=S(=O)(c1cccc2cnccc12)N1CCCNCC1` [HA-1077], the “expression of pluripotent marker Tra-1-60” value with hESC (HES-2) [1] (setting [9]) was “about 80%”. In the test with hESC (HES-2) [1] (setting [10]), the “expression of pluripotent marker Oct4” value was determined as 60% and the “expression of pluripotent marker Tra-1-60” value is “about 80%”.

As for `Cl.O=S(=O)(c1cccc2c(O)nccc12)N1CCCNCC1` [HA-1100], the “expression of pluripotent marker Tra-1-60” value in the test on hESC (HES-2) [1] (setting [9]) is “about 80%”; in the test on hESC (HES-2) [1] (setting [10]) it was about 50%. For the same molecule, the “expression of pluripotent marker Oct4” value in the test on hESC (HES-2) [1] (setting [10]) was determined as 60%.

Regarding `O=c1cc(N2CCOCC2)oc2c(-c3ccccc3)cccc12` [LY294002], in test [2], the IC50 is 1.4 µM and the “IC50 PI3 kinase activity” value was 0.43 µg/mL (≈ 1.4 µM). The “effect on PI3 kinase activity” value in [2] (concentration of 50 μM) is on record as “specifically abolished PI3 kinase activity”. In addition, the “inhibition of other lipid and protein kinases” value in test [3] is “did not inhibit”.

On to `O=C(Nc1ccncc1)Nc1c(Cl)cc(Cl)cc1Cl` [N-(4-Pyridyl)-N′-(2,4,6-trichlorophenyl) urea], for which the IC50 at Rho kinase (ROCK) was 0.2 µM.

In the case of `C[C@@H](N)[C@H]1CC[C@H](C(=O)Nc2ccncc2)CC1` [Y-27632, (R)-(+)-trans-N-(4-Pyridyl)-4-(1-aminoethyl)-cyclohexanecarboxamide.2HCl], the “expression of pluripotent markers Oct4 and mAb 84” value with hESC [4] (Cytodex 1, Cytodex 3, cellulose and Tosoh microcarriers without Matrigel, passage 5) is reported as “robust expression”; with hESC [4] (DE53 without Matrigel, over 3 weeks), “stable expression”. In addition, the “expression of pluripotent markers Oct4, mAb 84 and Tra-1-60” value in the test on hESC [4] (DE53 without Matrigel, 9 weeks) is “still robust”. In the test with hESC [4] (Tosoh polylysine microcarriers without Matrigel, passage 4), the “expression of pluripotent markers Oct4 and Tra-1-60” value is “strongly expressed”. Besides, the “consecutive weeks of passaging hESC” value with hESC [5] (cellulose DE53 microcarriers, no Matrigel, 10 μM) is 9 weeks; with hESC [5] (cellulose, Tosoh, Cytodex 1 and Cytodex 3 microcarriers, no Matrigel), “five”; in the test on hESC [5] (spherical polylysine Tosoh 65 micron microcarriers, no Matrigel), “six”. This molecule gave a cell numbers with hESC [5] (cellulose and Tosoh microcarriers, no Matrigel, passage 5) of 4 million/well. Also, the cell density result with iPS IMR90 cells [6] was “stable over 12 passages”. Further, the “pluripotent marker expression (Tra-1-60) versus Matrigel control cultures” value with hESC (HES-2) [1] (Cytodex 1 and DE53 microcarriers, 10 μM) is given as “similar”. The “expression of Tra-1-60 (FACS)” value with hESC (HES-2) [1] (DE53, 10 μM, passage 5) is listed as about 92%; with hESC (HES-2) [7], about 94%. Moreover, in the test on hESC (HES-2) [1] (setting [10]), the “expression of pluripotent marker Oct4” value was 60%. In addition, the “expression of pluripotent marker Tra-1-60” value in the test with hESC (HES-2) [1] (setting [10]) is reported as “about 80%”. The “Oct4 and Tra-1-60 expression” value with iPS IMR90 cells [8] is recorded as “stable over 12 passages”.

On to Aurothioglucose, for which the “expression of pluripotent markers Oct4 and mAb 84” value with hESC [4] (cellulose microcarriers without Matrigel, passage 0 and 1, compared to Matrigel control) is “stable expression”. Moreover, the “expression of pluripotency markers Oct4 and mAb84” value in the test with hESC [4] (uncoated DE53, through passage 4) was “continued strong expression”. The molecule also came in with a passage successfully reached in the test on hESC [5] (uncoated DE53) of 4 passage. Also, the “expression of pluripotent marker Oct4” value was about 50% with hESC (HES-2) [1] (setting [9]) and 60% in the test on hESC (HES-2) [1] (setting [10]). Also, the entries for the “expression of pluripotent marker Tra-1-60” value in the test on hESC (HES-2) [1] (setting [9]) and in the test on hESC (HES-2) [1] (setting [10]) were about 60% and about 70%, respectively. Moreover, the IC50 at PKCiota-Par6 interaction was 1 µM.
